According to patent US7998978B2 (Pfizer Inc., priority 2006, dated 2011):

molecular target: T1, JNK1α1 (Homo sapiens, UniProt P45983); test: Coupled spectrophotometric (PK/LDH) JNK1α1 assay: % inhibition and Ki determination; assay type: biochemical; details: @1 uM; read-out: % Inhibition JNK-1
T1 construct: catalytic domain containing amino acids 1-364 and N-terminal hexahistidine tag; hexahistidine (His6) (N); made in house; host or cells: E. coli BL21 (DE3)
Method: % Inhibition and Ki Determination
A coupled spectrophotometric assay, coupling JNK1α1 activity to the oxidation of β-NADH to NAD+ through the action of pyruvate kinase (PK) and lactic dehydrogenase (LDH), was used to determine the potency (percent inhibition at 1 or 10 μM or Ki) of compounds against JNK1α1 (Genbank Accession Number: L26318). […] The reaction was monitored by following the decrease in absorbance at 340 nm. The initial reaction rate was determined by the slope of the change in absorbance. To calculate percent inhibition the rate of the reaction in the presence of 1 or 10 μM compound was compared to the rate of the reaction with only DMSO multiplied by 100 percent. Note, the background rate of the above reaction in the presence of 10 μM PHA-00738186 was subtracted from all rates. […] Y=(−X+Eo−(Ki*(1+A/Km))+((X−Eo+(Ki*(1+A/Km)))^2+4*Eo*(Ki*(1+A/Km)))^0.5)*(Vm*A/(Km+A)/(2*Eo)) Formula: • Parameters: Eo, Ki, A, Km, Vo • Y is initial reaction velocity; • X is inhibitor concentration; • A is [ATP]; • Ki is inhibition constant; • Vm is Vmax; • Eo is total (initial) enzyme concentration; • Km is ATP Km;
The compounds were prepared in 100% DMSO at a 40× concentration. For percent inhibition experiments this would be 400 or 40 μM for 10 and 1 μM final concentration, respectively. For the Ki determination 3× serial dilutions were made starting at 4 mM (100 μM at 1×) in DMSO. A total of 11 concentrations were used for the analysis. The compounds were added to the reaction plate first. Next, a solution containing the HEPES, MgCl2, DTT, peptide substrate, NADH, PEP, PK/LDH enzyme, and JNK1α1—364nHis enzyme was added to the assay plate. The plate was incubated at room temperature for 15 minutes. Then the plate was warmed to 30° C. for 5 minutes. The reaction was initiated with the addition of ATP. The reaction was run in a plate reader at 30° C. for 20 minutes with absorbance readings made about every 10 seconds.
The column with “#” heading refers to compound number as exemplified in the Examples section. The column with “Ki” heading refers to Ki (in nM). The column with “% Inhibition” heading refers to percent inhibition of JNK-1 at 1 μM or 10 μM (in %) unless otherwise stated. ND refers to no data was taken.

T1 sequence (P45983 1-364): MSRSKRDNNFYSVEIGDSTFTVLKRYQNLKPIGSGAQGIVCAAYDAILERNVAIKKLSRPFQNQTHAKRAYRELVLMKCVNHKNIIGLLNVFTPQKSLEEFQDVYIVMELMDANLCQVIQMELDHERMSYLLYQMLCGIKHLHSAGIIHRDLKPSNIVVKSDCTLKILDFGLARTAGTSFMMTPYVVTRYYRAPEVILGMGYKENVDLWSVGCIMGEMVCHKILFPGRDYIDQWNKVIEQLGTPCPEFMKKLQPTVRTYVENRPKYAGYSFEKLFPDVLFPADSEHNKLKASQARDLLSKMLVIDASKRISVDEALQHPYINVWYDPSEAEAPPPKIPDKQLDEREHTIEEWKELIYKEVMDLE

First: O=C(NCCN1CCCC1=O)c1cccc2cnc(N[C@H]3CC[C@H](O)CC3)nc12 [Example 493, 2-[(trans-4-hydroxycyclohexyl)amino]-N-(2-(2-oxopyrrolidin-1-yl)ethyl]quinazoline-8-carboxamide]
Second: O=C(NCc1ccccn1)c1cccc2cnc(N[C@H]3CC[C@H](O)CC3)nc12 [Example 468, 2-[(trans-4-hydroxycyclohexyl)amino]-N-(pyridin-2-ylmethyl)quinazoline-8-carboxamide]
The inhibition at 1 µM of the first is lower: 11% for the first, 15% for the second.

Compared with `O[C@H]1CC[C@H](Nc2ncc3ccc(OC4CCC(F)(F)CC4)cc3n2)CC1` [Example 279, trans-4-({7-[(4,4-difluorocyclohexyl)oxy]quinazolin-2-yl}amino)cyclohexanol], `CC(CN1CCOCC1)Oc1ccc2cnc(N[C@H]3CC[C@H](O)CC3)nc2c1` (stereo partly drawn) [Example 274, trans-4-{[7-(1-methyl-2-morpholin-4-ylethoxy)quinazolin-2-yl]amino}cyclohexanol] is lower in inhibition at 1 µM: 54% for the first, 25% for the second.

Going from `COc1ccc(COc2cccc3cnc(N[C@H]4CC[C@H](O)CC4)nc23)cc1OC` [Example 265, trans-4-({8-[(3,4-dimethoxybenzyl)oxy]quinazolin-2-yl}amino)cyclohexanol] to `Cc1nn(C)c(C)c1NC(=O)c1cccc2cnc(N[C@H]3CC[C@H](O)CC3)nc12` [Example 318, 2-[(trans-4-hydroxycyclohexyl)amino]-N-(1,3,5-trimethyl-1H-pyrazol-4-yl)quinazoline-8-carboxamide], the inhibition at 1 µM falls from 47% to 37%.

same assay, conditions: @10 uM; read-out: % Inhibition JNK-1

Going from `COc1ccc(F)c(CNc2cc3cc(-c4cn[nH]c4)ccc3cn2)c1` [Example 236, N-(2-fluoro-5-methoxybenzyl)-6-(1H-pyrazol-4-yl)isoquinolin-3-amine] to `CN1CC(CNC(=O)c2cccc3cnc(N[C@H]4CC[C@H](O)CC4)nc23)OCC1=O` (stereo partly drawn) [Example 525, 2-[(trans-4-hydroxycyclohexyl)amino]-N-[(4-methyl-5-oxomorpholin-2-yl)methyl]quinazoline-8-carboxamide], the inhibition at 10 µM falls from 49% to 41%.

In the case of `CN(C)C(=O)CNC(=O)c1cccc2cnc(N[C@H]3CC[C@H](O)CC3)nc12` [Example 509, N-[2-(dimethylamino)-2-oxoethyl]-2-[(trans-4-hydroxycyclohexyl)amino]quinazoline-8-carboxamide], the inhibition at 10 µM is reported as 49%.

same assay, conditions: JNK-1

`O=C(NC1CCCC1)c1cccc2cnc(N[C@H]3CC[C@H](O)CC3)nc12` [Example 115, N-cyclopentyl-2-[(trans-4-hydroxycyclohexyl)amino]quinazoline-8-carboxamide] and `O=C(NCC1CCOC1)c1cccc2cnc(N[C@H]3CC[C@H](O)CC3)nc12` (stereo partly drawn) [Example 117, 2-[(trans-4-hydroxycyclohexyl)amino]-N-(tetrahydrofuran-3-ylmethyl)quinazoline-8-carboxamide] are within 1.5-fold of each other in Ki: 230 nM for the first, 250 nM for the second.

Compared with `O=C(NC1(c2ccccn2)CC1)c1cccc2cnc(N[C@H]3CC[C@H](O)CC3)nc12` [Example 462, 2-[(trans-4-hydroxycyclohexyl)amino]-N-(1-pyridin-2-ylcyclopropyl)quinazoline-8-carboxamide], `O[C@H]1CC[C@H](Nc2ncc3cccc(OCc4ccccn4)c3n2)CC1` [Example 248, trans-4-{[8-(pyridin-2-ylmethoxy)quinazolin-2-yl]amino}cyclohexanol] is 1.6-fold lower in Ki: 471 nM for the first, 303 nM for the second. The second binds more tightly here.

Compared with `COc1ccc2c(c1OC)CC[C@H]2C(=O)Nc1cc2cc(-c3cn[nH]c3)ccc2cn1` [Example 23, (R)-4,5-dimethoxy-N-[6-(1H-pyrazol-4-yl)isoquinolin-3-yl]indane-1-carboxamide], `O=C(CCc1cccc(C(F)(F)F)c1)Nc1cc2cc(-c3cn[nH]c3)ccc2cn1` [Example 42, N-[6-(1H-pyrazol-4-yl)isoquinolin-3-yl]-3-[3-(trifluoromethyl)phenyl]propanamide] is 2.5-fold higher in Ki: 2 nM for the first, 5 nM for the second.

Going from `O[C@H]1CC[C@H](Nc2ncc3cccc(OC4CCN(c5ccncn5)CC4)c3n2)CC1` [Example 247, trans-4-({8-[(1-pyrimidin-4-ylpiperidin-4-yl)oxy]quinazolin-2-yl}amino)cyclohexanol] to `COC(C)(C)CCOc1cccc2cnc(N[C@H]3CC[C@H](O)CC3)nc12` [Example 241, trans-4-{[8-(3-methoxy-3-methylbutoxy)quinazolin-2-yl]amino}cyclohexanol], the Ki falls from 274 nM to 98 nM (2.8-fold). The second binds more tightly here.

Compared with `CC[C@H](C)[C@@H](CO)NC(=O)c1ccc2cnc(N[C@H]3CC[C@H](O)CC3)nc2c1` [Example 378, 2-((trans-4-hydroxycyclohexyl)amino]-N-[(1S,2S)-1-(hydroxymethyl)-2-methylbutyl]quinazoline-7-carboxamide], `CC(O)CNC(=O)c1ccc2cnc(N[C@H]3CC[C@H](O)CC3)nc2c1` (stereo partly drawn) [Example 351, 2-[(trans-4-hydroxycyclohexyl)amino]-N-(2-hydroxypropyl)quinazoline-7-carboxamide] is 6.6-fold higher in Ki: 160 nM for the first, 1060 nM for the second. The first binds more tightly here.

Going from `C[C@@H](CO)NC(=O)c1cccc2cnc(N[C@H]3CC[C@H](NS(C)(=O)=O)CC3)nc12` [Example 131, N-[(1S)-2-hydroxy-1-methylethyl]-2-({trans-4-[(methylsulfonyl)amino]cyclohexyl}amino)quinazoline-8-carboxamide] to `CC(=O)N[C@H]1CC[C@H](Nc2ncc3cccc(C(=O)N[C@@H](C)CO)c3n2)CC1` [Example 133, 2-{[trans-4-(acetylamino)cyclohexyl]amino}-N-[(1S)-2-hydroxy-1-methylethyl]quinazoline-8-carboxamide], the Ki rises from 77 nM to 210 nM (2.7-fold). The first binds more tightly here.

`CCn1ccnc1CNC(=O)c1ccc2cnc(N[C@H]3CC[C@H](O)CC3)nc2c1` [Example 333, N-[(1-ethyl-1H-imidazol-2-yl)methyl]-2-([trans-4-hydroxycyclohexyl)amino]quinazoline-7-carboxamide] and `O=C(NCc1ccccc1)c1ccc2cnc(N[C@H]3CC[C@H](O)CC3)nc2c1` [Example 62, N-benzyl-2-[(trans-4-hydroxycyclohexyl)amino]quinazoline-7-carboxamide] are within 1.5-fold of each other in Ki: 455 nM for the first, 432 nM for the second.

First: C[C@H](CO)NC(=O)c1cccc2cnc(N[C@H]3CC[C@H](O)CC3)nc12 [Example 123, 2-[(trans-4-hydroxycyclohexyl)amino]-N-[(1R)-2-hydroxy-1-methylethyl]quinazoline-8-carboxamide]
Second: CC(C)(CO)NC(=O)c1cccc2cnc(N[C@H]3CC[C@H](NS(C)(=O)=O)CC3)nc12 [Example 132, N-(2-hydroxy-1,1-dimethylethyl)-2-({trans-4-[(methylsulfonyl)amino]cyclohexyl}amino)quinazoline-8-carboxamide]
The Ki of the first is 8.1-fold higher: 634 nM for the first, 78 nM for the second. The second binds more tightly here.

Going from `O=C(NCC1CCCOC1)c1ccc2cnc(N[C@H]3CC[C@H](O)CC3)nc2c1` (stereo partly drawn) [Example 92, 2-[(trans-4-hydroxycyclohexyl)amino]-N-(tetrahydro-2H-pyran-3-ylmethyl)quinazoline-7-carboxamide] to `O=C(NCCN1CCCCC1=O)c1ccc2cnc(N[C@H]3CC[C@H](O)CC3)nc2c1` [Example 370, 2-[(trans-4-hydroxycyclohexyl)amino]-N-(2-(2-oxopiperidin-1-yl)ethyl]quinazoline-7-carboxamide], the Ki rises from 379 nM to 2470 nM (6.5-fold). The first binds more tightly here.

`CCC[C@@H](CO)NC(=O)c1ccc2cnc(NC3CCCC3)nc2c1` [Example 387, 2-(cyclopentylamino)-N-[(1S)-1-(hydroxymethyl)butyl]quinazoline-7-carboxamide] and `O=C(N[C@H](CO)Cc1ccccc1)c1ccc2cnc(NC3CCCCC3)nc2c1` [Example 395, N-[(1S)-1-benzyl-2-hydroxyethyl]-2-(cyclohexylamino)quinazoline-7-carboxamide] are within 1.5-fold of each other in Ki: 297 nM for the first, 422 nM for the second.

First: O=C(NC1CCc2ccccc21)c1ccc2cnc(N[C@H]3CC[C@H](O)CC3)nc2c1 (stereo partly drawn) [Example 94, N-(2,3-dihydro-1H-inden-1-yl)-2-[(trans-4-hydroxycyclohexyl)amino]quinazoline-7-carboxamide]
Second: Cc1ccc2cnc(N[C@H]3CC[C@H](O)CC3)nc2c1OCC(=O)N1CCOCC1 [Example 213, trans-4-{[7-methyl-8-(2-morpholin-4-yl-2-oxoethoxy)quinazolin-2-yl]amino} cyclohexanol]
The Ki of the first is 5.3-fold lower: 148 nM for the first, 780 nM for the second. The first binds more tightly here.

For `c1cc(OC2CCOC2)c2nc(NC3CCOCC3)ncc2c1` (centres unmarked) [Example 173, 8-(tetrahydrofuran-3-yloxy)-N-(tetrahydro-2H-pyran-4-yl)quinazolin-2-amine], the Ki was 1910 nM.
